# From patent publication US20060281719A1, “Oestrogen-17-sulphamates as inhibitors of steroid sulphatase” (priority 2000, published 2006)
# Columns and labels:
# [1] = target: T1, oestrone sulphatase (E1-STS) (Homo sapiens, UniProt P08842); test: Inhibition of steroid sulphatase (E1-STS) activity in intact MCF-7 breast cancer cells; format: cell-based
# T1 sequence (P08842 22-583): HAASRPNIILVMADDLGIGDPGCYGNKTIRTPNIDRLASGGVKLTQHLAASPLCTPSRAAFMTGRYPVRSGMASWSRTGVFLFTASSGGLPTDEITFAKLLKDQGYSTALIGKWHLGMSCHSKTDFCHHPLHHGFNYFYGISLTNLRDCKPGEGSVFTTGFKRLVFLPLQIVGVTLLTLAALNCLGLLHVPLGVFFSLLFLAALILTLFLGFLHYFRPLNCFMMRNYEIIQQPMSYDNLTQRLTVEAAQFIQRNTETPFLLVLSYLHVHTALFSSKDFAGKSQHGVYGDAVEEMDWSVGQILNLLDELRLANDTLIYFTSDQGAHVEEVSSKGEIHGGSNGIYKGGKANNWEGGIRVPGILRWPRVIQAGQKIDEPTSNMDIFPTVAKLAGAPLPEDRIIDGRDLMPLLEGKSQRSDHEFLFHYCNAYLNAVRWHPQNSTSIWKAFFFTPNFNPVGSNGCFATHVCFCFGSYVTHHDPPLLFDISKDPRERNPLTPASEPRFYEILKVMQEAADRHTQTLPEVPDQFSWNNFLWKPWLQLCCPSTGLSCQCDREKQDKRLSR
# [2] = target: T1, oestrone sulphatase (E1-STS); test: Inhibition of steroid sulphatase activity in placental microsomes; format: biochemical; parameters: from tissue; host or cells: human term placenta (microsomal preparation)
# Procedure: Inhibition of Steroid Sulphatase Activity in Placental Microsomes
# Sulphatase-positive human placenta from normal term pregnancies are thoroughly minced with scissors and washed once with cold phosphate buffer (pH 7.4, 50 mM) then re-suspended in cold phosphate buffer (5 ml/g tissue). Homogenisation is accomplished with an Ultra-Turrax homogeniser, using three 10 second bursts separated by 2 minute cooling periods in ice. Nuclei and cell debris are removed by centrifuging (4° C.) at 2000 g for 30 minutes and portions (2 ml) of the supernatant are stored at 20° C.
# Incubations (1 ml) are carried out using a protein concentration of 100 mg/ml, substrate concentration of 20 mM [6,7-3H]oestrone-3-sulphate (specific activity 60 Ci/mmol from New England Nuclear, Boston, Mass., U.S.A.) and an incubation time of 20 minutes at 37° C. If necessary eight concentrations of compounds are employed: 0 (i.e. control); 0.05 mM; 0.1 mM; 0.2 mM; 0.4 mM; 0.6 mM; 0.8 mM; 1.0 mM. After incubation each sample is cooled and the medium (1 ml) was pipetted into separate tubes containing [14C]oestrone (7×10^3 dpm) (specific activity 97 Ci/mmol from Amersham International Radiochemical Centre, Amersham, U.K.). The mixture is shaken thoroughly for 30 seconds with toluene (5 ml). […] A portion (2 ml) of the organic phase was removed, evaporated and the 3H and 14C content of the residue determined by scintillation spectrometry. The mass of oestrone-3-sulphate hydrolysed is calculated from the 3H counts obtained (corrected for the volumes of the medium and organic phase used, and for recovery of [14C]oestrone added) and the specific activity of the substrate.
compound,measurement,setting,value
"NS(=O)(=O)Oc1ccc(S(=O)(=O)c2ccc(OS(N)(=O)=O)cc2)cc1 [Compound 14, Sulphonyldiphenyl-4,4′-O,O-bis-sulphamate]",% Inhibition of E1-STS activity in MCF-7 cells,[1]; 0.1 μM,<10%
same,% Inhibition of E1-STS activity in MCF-7 cells,[1]; 1 μM,50.6 ± 3.3%
same,% Inhibition of E1-STS activity in MCF-7 cells,[1]; 10 μM,87.4 ± 2.7%
same,% Inhibition of E1-STS activity in placental microsomes,[2]; 10 μM,65.0 ± 1.8%
same,% Inhibition of E1-STS activity in placental microsomes,[2]; 25 µM,85.5 ± 0.6%
same,% Inhibition of E1-STS activity in placental microsomes,[2]; 50 µM,92.3 ± 0.3%
same,% Inhibition of E1-STS activity in placental microsomes,[2]; 100 µM,95.4 ± 0.2%
"NS(=O)(=O)Oc1ccc(Sc2ccc(OS(N)(=O)=O)cc2)cc1 [Compound 15, Thiodiphenyl-4,4′O,O-bis-sulphamate]",% Inhibition of E1-STS activity in MCF-7 cells,[1]; 0.1 μM,67.2 ± 1.1%
same,% Inhibition of E1-STS activity in MCF-7 cells,[1]; 1 μM,96.6 ± 1.4%
same,% Inhibition of E1-STS activity in MCF-7 cells,[1]; 10 μM,99.7 ± 0.1%
same,% Inhibition of E1-STS activity in placental microsomes,[2]; 10 μM,65.3 ± 0.9%
same,% Inhibition of E1-STS activity in placental microsomes,[2]; 25 µM,79.4 ± 0.9%
same,% Inhibition of E1-STS activity in placental microsomes,[2]; 50 µM,87.4 ± 0.9%
same,% Inhibition of E1-STS activity in placental microsomes,[2]; 100 µM,91.9 ± 0.4%
"NS(=O)(=O)Oc1ccc(Sc2ccc(O)cc2)cc1 [Compound 16, 4′-hydroxy-thiodiphenyl-4-O-sulphamate]",% Inhibition of E1-STS activity in MCF-7 cells,[1]; 0.1 μM,26.6 ± 4.3%
same,% Inhibition of E1-STS activity in MCF-7 cells,[1]; 1 μM,83.9 ± 1.2%
same,% Inhibition of E1-STS activity in MCF-7 cells,[1]; 10 μM,97.7 ± 0.4%
same,% Inhibition of E1-STS activity in placental microsomes,[2]; 10 μM,33.1 ± 1.7%
same,% Inhibition of E1-STS activity in placental microsomes,[2]; 25 µM,49.5 ± 0.1%
same,% Inhibition of E1-STS activity in placental microsomes,[2]; 50 µM,64.7 ± 0.9%
same,% Inhibition of E1-STS activity in placental microsomes,[2]; 100 µM,76.8 ± 0.4%
"NS(=O)(=O)Oc1ccc(Cc2ccc(OS(N)(=O)=O)cc2)cc1 [Compound 18, 4,4′-Bis-sulphamoyloxydiphenylmethane]",% Inhibition of E1-STS activity in MCF-7 cells,[1]; 0.1 μM,22.2 ± 0.1%
same,% Inhibition of E1-STS activity in MCF-7 cells,[1]; 1 μM,50.01 ± 0.1%
same,% Inhibition of E1-STS activity in MCF-7 cells,[1]; 10 μM,93.3 ± 0.1%
same,% Inhibition of E1-STS activity in placental microsomes,[2]; 10 μM,22.1 ± 0.6%
same,% Inhibition of E1-STS activity in placental microsomes,[2]; 25 µM,29.4 ± 0.1%
same,% Inhibition of E1-STS activity in placental microsomes,[2]; 50 µM,38.7 ± 4.9%
same,% Inhibition of E1-STS activity in placental microsomes,[2]; 100 µM,53.1 ± 0.1%
"NS(=O)(=O)Oc1ccc(Cc2ccc(O)cc2)cc1 [Compound 19, 4-sulphamoyloxy-4′ hydroxydiphenylmethane]",% Inhibition of E1-STS activity in MCF-7 cells,[1]; 0.1 μM,<10%
same,% Inhibition of E1-STS activity in MCF-7 cells,[1]; 1 μM,39.3 ± 0.1%
same,% Inhibition of E1-STS activity in MCF-7 cells,[1]; 10 μM,92.4 ± 0.1%
same,% Inhibition of E1-STS activity in placental microsomes,[2]; 10 μM,11.7 ± 2.3%
same,% Inhibition of E1-STS activity in placental microsomes,[2]; 25 µM,17.3 ± 2.7%
same,% Inhibition of E1-STS activity in placental microsomes,[2]; 50 µM,22.8 ± 1.4%
same,% Inhibition of E1-STS activity in placental microsomes,[2]; 100 µM,34.3 ± 1.0%
"NS(=O)(=O)Oc1ccc(C23CC4CC(C2)CC(c2ccc(OS(N)(=O)=O)cc2)(C4)C3)cc1 [Compound 20, (1,3-Adamantanediyl)diphenyl-4,4′-O,O-bis-sulphamate]",% Inhibition of E1-STS activity in MCF-7 cells,[1]; 0.1 μM,16.1 ± 4.0%
same,% Inhibition of E1-STS activity in MCF-7 cells,[1]; 1 μM,32.7 ± 2.3%
same,% Inhibition of E1-STS activity in MCF-7 cells,[1]; 10 μM,90.1 ± 0.7%
same,% Inhibition of E1-STS activity in placental microsomes,[2]; 10 μM,31.4 ± 1.6%
same,% Inhibition of E1-STS activity in placental microsomes,[2]; 25 µM,41.9 ± 2.3%
same,% Inhibition of E1-STS activity in placental microsomes,[2]; 50 µM,62.5 ± 7.5%
same,% Inhibition of E1-STS activity in placental microsomes,[2]; 100 µM,69.0 ± 4.8%
"NS(=O)(=O)Oc1ccc(C23CC4CC(CC(c5ccc(O)cc5)(C4)C2)C3)cc1 [Compound 21, 4′-hydroxy-(1,3-adamantanediyl)diphenyl-4-O-sulphamate]",% Inhibition of E1-STS activity in MCF-7 cells,[1]; 0.1 μM,<10%
same,% Inhibition of E1-STS activity in MCF-7 cells,[1]; 1 μM,16.3 ± 1.5%
same,% Inhibition of E1-STS activity in MCF-7 cells,[1]; 10 μM,64.1 ± 1.1%
same,% Inhibition of E1-STS activity in placental microsomes,[2]; 10 μM,<10%
same,% Inhibition of E1-STS activity in placental microsomes,[2]; 25 µM,15.9 ± 0.9%
same,% Inhibition of E1-STS activity in placental microsomes,[2]; 50 µM,32.5 ± 1.1%
same,% Inhibition of E1-STS activity in placental microsomes,[2]; 100 µM,60.1 ± 3.4%
"Oc1ccc(C(O)(c2ccc(O)cc2)C2CCCCC2)cc1 [Compound 24, 1-Cyclohexyl-1,1-di-(4-hydroxyphenyl)methanol]",% Inhibition of E1-STS activity in placental microsomes,[2]; 10 μM,<10%
same,% Inhibition of E1-STS activity in placental microsomes,[2]; 25 µM,20.0 ± 1.6%
same,% Inhibition of E1-STS activity in placental microsomes,[2]; 50 µM,33.4 ± 2.2%
same,% Inhibition of E1-STS activity in placental microsomes,[2]; 100 µM,44.7 ± 0.4%
"NS(=O)(=O)Oc1cccc(C(=O)c2cccc(OS(N)(=O)=O)c2)c1 [Compound 28, Benzophenone-3,3′-O,O-bis-sulphamate]",% Inhibition of E1-STS activity in MCF-7 cells,[1]; 0.1 μM,75.3 ± 0.8%
same,% Inhibition of E1-STS activity in MCF-7 cells,[1]; 1 μM,98.4 ± 0.3%
same,% Inhibition of E1-STS activity in MCF-7 cells,[1]; 10 μM,99.9 ± 0.1%
same,% Inhibition of E1-STS activity in placental microsomes,[2]; 10 μM,51.1 ± 3.7%
same,% Inhibition of E1-STS activity in placental microsomes,[2]; 25 µM,73.6 ± 1.9%
same,% Inhibition of E1-STS activity in placental microsomes,[2]; 50 µM,84.1 ± 1.9%
"NS(=O)(=O)Oc1cccc(C(=O)c2cccc(O)c2)c1 [Compound 29, 3′-hydroxybenzophenone-3-O-sulphamate]",% Inhibition of E1-STS activity in MCF-7 cells,[1]; 0.1 μM,<10%
same,% Inhibition of E1-STS activity in MCF-7 cells,[1]; 1 μM,30.7 ± 5.6%
same,% Inhibition of E1-STS activity in MCF-7 cells,[1]; 10 μM,87.2 ± 1.8%
same,% Inhibition of E1-STS activity in placental microsomes,[2]; 10 μM,18.8 ± 1.3%
same,% Inhibition of E1-STS activity in placental microsomes,[2]; 25 µM,30.7 ± 3.4%
same,% Inhibition of E1-STS activity in placental microsomes,[2]; 50 µM,43.7 ± 2.6%
same,% Inhibition of E1-STS activity in placental microsomes,[2]; 100 µM,58.3 ± 0.1%
